Data from patent US11059844B2, “Immune stimulating macrolides” (ISR IMMUNE SYSTEM REGULATION HOLDING AB (PUBL), priority 2017, dated 2021).

Assays:
CD11b+ splenocytes = assay: MHC class I expression on CD11b+ splenocytes of mice after i.v. dosing; type: in vivo, C57bl/6 mice; details: spleen removed 24 h later
Procedure: FIG. 15: % MHC class I high CD11 b+ cells in spleen of 3 individual C57bl/6 mice injected 24 h previously with indicated compound. MHC class I and CD11b expression was measured by flow cytometry.
Study 14: Compound 1 or 2 was administered i.v. to C57bl/6 mice.

Micrococcus luteus = assay: Minimum Inhibitory Concentration (MIC) assay; type: cell-based; details: aerobic, 37° C., 18 h
Procedure: (§1) The bioactivity of macrolide compounds against 4 strains of common gut bacteria (Escherichia coli, Streptococcus salivarius subsp. salivarius, Lactobacillus casei and Bifidobacterium longum subsp. infantis) and common mammalian skin isolate Micrococcus luteus, was assessed using the Minimum Inhibitory Concentration (MIC) assay. Bacterial strains were purchased from DSMZ (Brunswick, Germany) except M. luteus which was obtained from NCIMB, and stored in 20% glycerol at −80° C. Stock solutions (100% DMSO) of positive controls (azithromycin and erythromycin), and of test compounds 1 and 2 were diluted in broth to working stock concentrations of 256 μg/ml (final assay testing concentration range 128 μg/ml to 0.00391 μg/ml). Stock solutions of all other compounds were diluted in broth to working stock concentrations of 128 μg/ml (final assay testing concentration range 64 μg/ml to 0.00195 μg/ml). Bacterial strains were cultivated in appropriate broth in an anaerobic chamber at 37° C., except for M. luteus which was incubated aerobically at 37° C. 18 h cultures were diluted in broth to an OD595 of 0.1 and then further diluted 1:10. In 96-well plates, in duplicate, 200 μl working stock of test compound was transferred to well 1 and serially diluted (1:2) in broth. 100 μl bacterial suspension was aliquoted into each well and mixed thoroughly. Appropriate sterility controls were included and plates were incubated in an anaerobic chamber, or aerobically (M. luteus) at 37° C. for 18 h. The MIC was determined to be the concentration of test compound in the first well with no visible growth.

[1] = system: Bifidobacterium longum subsp. infantis; assay: Minimum Inhibitory Concentration (MIC) assay; type: cell-based; details: anaerobic, 37° C., 18 h
Procedure: as §1

[2] = system: Streptococcus salivarius subsp. salivarius; assay: Minimum Inhibitory Concentration (MIC) assay; type: cell-based; details: anaerobic, 37° C., 18 h
Procedure: as §1

Escherichia coli = assay: Minimum Inhibitory Concentration (MIC) assay; type: cell-based; details: anaerobic, 37° C., 18 h
Procedure: as §1

[3] = Body weight of mice after i.v. dosing; type: in vivo, C57bl/6 mice; details: 5 mg/kg group (not shown)
Procedure: Study 13: Compound 1 was administered i.v. to C57bl/6 mice at 0.165 mg/kg to 5 mg/kg. CD25+ cell abundance was increased in animals receiving the highest dose of 5 mg/kg (FIG. 14), as was body weight in the same group (not shown).

human TLR2 = target: T1, human TLR2 (Homo sapiens, UniProt O60603); assay: TLR2 reporter assay (HEK-293-TLR, SEAP); type: cell-based
T1 construct: host or cells: recombinant HEK-293-TLR cell lines
T1 sequence (O60603 21-784): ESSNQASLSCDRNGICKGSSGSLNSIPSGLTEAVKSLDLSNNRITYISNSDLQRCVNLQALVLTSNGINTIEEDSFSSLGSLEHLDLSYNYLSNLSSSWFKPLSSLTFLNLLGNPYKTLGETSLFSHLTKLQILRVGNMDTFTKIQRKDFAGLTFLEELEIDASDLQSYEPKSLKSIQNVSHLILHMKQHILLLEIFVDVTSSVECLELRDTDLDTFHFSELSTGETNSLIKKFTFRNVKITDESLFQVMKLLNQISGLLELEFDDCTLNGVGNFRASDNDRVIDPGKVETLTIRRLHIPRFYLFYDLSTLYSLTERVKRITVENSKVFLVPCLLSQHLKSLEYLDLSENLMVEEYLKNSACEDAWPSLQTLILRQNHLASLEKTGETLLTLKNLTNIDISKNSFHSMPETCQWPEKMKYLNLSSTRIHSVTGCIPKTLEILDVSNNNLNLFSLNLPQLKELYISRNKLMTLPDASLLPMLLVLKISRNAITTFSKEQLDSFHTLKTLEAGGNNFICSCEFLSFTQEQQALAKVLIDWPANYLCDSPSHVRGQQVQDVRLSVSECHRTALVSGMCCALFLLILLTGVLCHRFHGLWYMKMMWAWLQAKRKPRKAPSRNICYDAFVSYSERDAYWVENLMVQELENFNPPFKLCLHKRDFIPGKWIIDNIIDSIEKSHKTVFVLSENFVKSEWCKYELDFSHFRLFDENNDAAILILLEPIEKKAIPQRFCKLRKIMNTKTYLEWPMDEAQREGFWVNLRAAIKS
Procedure: Samples and controls were tested in duplicate on recombinant HEK-293-TLR cell lines using a cell reporter assay at Invivogen using their standard assay conditions. These cell lines functionally over-express human TLR2 protein as well as a reporter gene which is a secreted alkaline phosphatase (SEAP). The production of this reporter gene is driven by an NFkB inducible promoter. The TLR reporter cell lines activation results are given as optical density values (OD).
20 μl of each test article were used to stimulate the hTLR2 reporter cell lines in a 200 μl of final reaction volume. Samples were tested in duplicate, with at least two concentrations tested—20 uM and 10 uM.
Compounds were tested using a TLR2 reporter assay (see general methods) that measured for stimulation of the TLR2 receptor. Stimulatory effect was measured as an increase in optical density (OD) due to release of secreted alkaline phosphatase (SEAP) and is shown in table 4: […]

T cells in PBMC = assay: T cell proliferation, Cell Trace Violet and flow cytometry; type: cell-based, Human; details: 6 days in the presence of IL-2
Procedure: FIG. 7. CD4 T cell proliferation after 6 days stimulation with compound 1, measured with proliferation dye Celltrace violet (Invitrogen) and flow cytometry. Untreated cells (UNT) or compound A were used as controls.
Study 6: PBMC were stimulated with compound 1 and cultured in RPMI media for 6 days in the presence of IL-2 (Miltenyi Biotechnologies) and Cell Trace Violet Dye (Invitrogen). Proliferation was measured with flow cytometry.

[4] = system: CMV specific CD8+ T cells; assay: CMV cultures: phenotype of CMV specific CD8+ T cells; type: cell-based, Human; details: CMV antigen, 6 days
Procedure: Human peripheral blood mononuclear cells (PBMCs) were purified from healthy CMV positive donors with Ficoll-Paque density centrifugation. The PBMC were labeled with 5 μM celltrace violet (Invitrogen) in PBS for 15 minutes and then washed with complete cell culture medium. The labeled PBMC was cultured in the presence of a peptide library spanning the CMV pp65 protein (1 μg peptide/ml, JPT) in AIM-V media (Invitrogen) supplemented with L-glutamine, Sodium pyruvate (Sigma), 10% fetal bovine serum, 100 μg/mL penicillin and 100 μg/mL streptomycin (Hyclone) for 6-8 days in 37° C., 5% CO2. Cell proliferation was assessed with flow cytomtery using a BD FACS Canto II flow cytometer.
Study 7: Virus specific T cell proliferation was also affected by compound 1. […] CD127 is crucial for T cell homeostasis, differentiation and function, and reduced expression correlates with disease severity in HIV and other chronic viral diseases (Crawley et al. 2012).

[5] = system: Monocytes differentiated into macrophages; assay: CD80 expression on monocytes differentiated into macrophages; type: cell-based, Human; details: 24 h
Procedure: Human peripheral blood mononuclear cells (PBMCs) were purified from healthy donors with Ficoll-Paque density centrifugation. Cells were cultured in complete RPMI-1640 media (Invitrogen) supplemented with 25 mM HEPES, L-glutamine, Sodium pyruvate (Sigma), 10% fetal bovine serum, 100 μg/mL penicillin and 100 μg/mL streptomycin (Hyclone) for 24-72 hours in 37° C., 5% CO2 and stimulated with and increasing concentrations of compound 1 and 2. Cells were then washed in PBS and stained with monoclonal antibodies specific for cell surface markers (BD Pharmingen) and analysed with flow cytomtetry using a BD FACS Canto II flow cytometer. All samples were tested in duplicates.
Human peripheral blood mononuclear cells (PBMCs) were purified from healthy donors with Ficoll-Paque density centrifugation. Cells were cultured in complete RPMI-1640 medium (Invitrogen) supplemented with 25 mM HEPES, L-glutamine, Sodium pyruvate (Sigma), 10% fetal bovine serum, 100 μg/mL penicillin and 100 μg/mL streptomycin (Hyclone). […] The cells were removed from the plate, washed in PBS and analysed for expression of cell specific surface markers and MHC class I with flow cytomtery using monoclonal antibodies from BD Pharmingen and a FACS Canto II flow cytometer.

CC[C@H]1OC(=O)[C@H](C)[C@@H](O[C@H]2C[C@@H](N(C)C)[C@H](O)[C@@H](C)O2)[C@H](C)[C@@H](O)[C@](C)(O)C[C@@H](C)CN(C)[C@H](C)[C@@H](O)[C@]1(C)O [Compound 1]
splenocyte cells with high MHC I expression (CD11b+) (CD11b+ splenocytes): induced an increase
MIC (Micrococcus luteus): > 256 µg/mL
MIC [1]: > 64 µg/mL
MIC [2]: > 64 µg/mL
MIC (Escherichia coli): > 64 µg/mL
body weight [3]: increased
lowest concentration at which TLR2 was stimulated (concentrations down to) (human TLR2): 5 µM
OD after addition of 5 μM test article (human TLR2; 5 μM): 0.111 OD
OD after addition of 10 μM test article (human TLR2; 10 μM): 0.202 OD
OD after addition of 20 μM test article (human TLR2; 20 μM): 0.458 OD
cytokine driven proliferation of T cells (T cells in PBMC): altered cytokine driven proliferation profile
expression of IL-7 receptor a (CD127) on activated CMV specific CD8+ T cells [4]: increased expression
CD80 on macrophages [5]: upregulated
